US20170360912A1, “CHITOSAN-BASED HYDROGEL AND APPLICATIONS THEREOF” (priority 2014, published 2017)

Legend:
[1] = BGP pKa,2 at 25° C.; cited from earlier work
[2] = Measurement of pH and osmolality (Example 2); format: physicochemical; conditions: FIG. 8 panels A-C
Experimental: After 24 hours of gelation at 37° C., each hydrogel was pressed and filtered in order to recover entrapped solution. The pH of the extracted liquids was measured at room temperature using a pH meter (UltraBasic pH-meter, Denver Instrument). The impact of GA concentration of gels prepared with culture medium (as detailed in Section 2.2.4) on the final osmolality of hydrogels was measured using an osmometer (Advanced® Micro Osmometer, Model 3300, Advanced Instruments Inc.).

[3] = system: endothelial-derived cells (EA.hy 926); conditions: SHC 0.1M; cited from earlier work
[4] = Doxycycline denaturation on mixing, spectrometry; format: physicochemical
Description: Addition of an anti-oxidant was however required for long term stability.

| drug stability on direct addition in the CH or GA solution [4] | drug stability on addition in the CH-GA solution ([4]; room temperature) | SMILES | pKa [1] | slope of osmolality versus gelling agent concentration [2] | damage on endothelial-derived cells [3] |
| --- | --- | --- | --- | --- | --- |
|  |  | O.O.O.O.O.O=P([O-])([O-])OC(CO)CO.[Na+].[Na+] [BGP, β-Glycerol phosphate disodium salt pentahydrate, reference compound] | 6.65 | 1789 |  |
|  |  | O=C([O-])O.[Na+] [SHC, Sodium hydrogen carbonate] | 6.35 | 1475 | no damage |
| drug denaturation | avoid drug denaturation | C[C@H]1c2cccc(O)c2C(=O)C2=C(O)[C@]3(O)C(=O)C(C(N)=O)=C(O)[C@@H](N(C)C)[C@@H]3[C@@H](O)[C@@H]21 [doxycycline] |  |  |  |
